# Experimental data taken from patent publication US12473332B2, “Modified peptides and associated methods of use” (Advanced Technologies For Novel Therapeutics, LLC, priority 2019, dated 2025).
# Where no end group is shown, it is not given here.
# Assays:
# [1] = trypan blue staining, live and dead cell count; type: cell-based; details: 12 to 72 hours
# Text: Therefore, in addition to capturing live images, cells were stained with trypan blue at different time intervals following treatment with ZaTa and counted by a light microscope using a hemocytometer.
# AKT [2] = test: AKT activity in cultured neurons treated with PKA inhibitor or activator (AKT phosphorylation at Thr-308 and Ser-473); type: cell-based
# Description: To evaluate the significance of the AKT-PKAc interaction, kinase inhibitors were employed. […] Thus, cultured neurons were treated with the selective PKA inhibitor, H-89, and the potent PKA activator, forskolin, and AKT activity was analyzed.
# AKT [3] = biological target: AKT (Homo sapiens, UniProt P31749); test: in vitro AKT kinase assay with Ser-9 GSK-3 GST fusion protein substrate; PKAc peptide library screen; type: biochemical; details: Ser-9 GSK-3 GST substrate
# glioblastoma cells = details: literature; read-out: IC-50 on glioblastoma cells; cited from earlier work
# Neuroblastoma cells = details: literature; read-out: IC-50 on neuroblastoma cells; cited from earlier work
# AKT1 = AKT1 (Homo sapiens, UniProt P31749); test: AKT1 in vitro kinase assay, γ-32P incorporation into Ser-21 GSK-3β substrate peptide; type: biochemical
# AKT1, sequence (P31749 whole entry): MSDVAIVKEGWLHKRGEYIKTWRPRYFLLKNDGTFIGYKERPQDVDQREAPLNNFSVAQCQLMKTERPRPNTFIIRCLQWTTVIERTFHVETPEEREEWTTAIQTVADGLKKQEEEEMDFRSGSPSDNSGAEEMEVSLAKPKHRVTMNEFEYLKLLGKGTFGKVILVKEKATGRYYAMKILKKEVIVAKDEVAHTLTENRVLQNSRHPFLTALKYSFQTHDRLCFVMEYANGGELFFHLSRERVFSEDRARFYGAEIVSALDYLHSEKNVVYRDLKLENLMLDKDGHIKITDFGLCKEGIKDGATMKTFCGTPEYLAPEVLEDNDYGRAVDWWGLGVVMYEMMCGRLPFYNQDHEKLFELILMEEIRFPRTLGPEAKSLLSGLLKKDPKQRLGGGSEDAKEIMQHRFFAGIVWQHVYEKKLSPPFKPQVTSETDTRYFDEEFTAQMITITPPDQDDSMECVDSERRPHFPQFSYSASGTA
# AKT (Homo sapiens, UniProt P31749), sequence (P31749 whole entry, the tested form may be a part): as the sequence (P31749 whole entry) above
inhibitory effect on catalytic activity of AKT (AKT [3]),Compound,number of dead cells [1],other results
,AKRVKGRTWDLCGTPEY [ZaTa^T10D],a significant increase in the number of dead cells was not seen,
,AKRVKGRTWTLCGRPEY [ZaTa^T14R],a significant increase in the number of dead cells was observed,
,"O=S(=O)(NCCNC/C=C/c1ccc(Br)cc1)c1cccc2cnccc12 [Peptide H-89, H-89]",,activity of AKT (activation-dependent phosphorylation at Thr-308 and Ser-473) (AKT [2]): dose-dependent increase in the activity of AKT
significant inhibitory effects,G-V-L-I-Y-E-M-A-A-G-Y-P-P-F-F (GVLIYEMAAGYPPFF; MISC_FEATURE - Peptide_SEQ ID NO:70) [Peptide 63],,
,AKRVKGRTWTLCGTPER [ZaTa^Y17R],a significant increase in the number of dead cells was observed,
significant inhibitory effects,Y-E-M-A-A-G-Y-P-P-F-F-A (YEMAAGYPPFFA; MISC_FEATURE - Peptide_SEQ ID NO:71) [Peptide 64],,
significant inhibitory effects,D-Q-Q-G-Y-I-Q-V-T-D-F-G-F-A-K (DQQGYIQVTDFGFAK; MISC_FEATURE - Peptide_SEQ ID NO:56) [Peptide 49],,
,Cn1nnc2c(C(N)=O)ncn2c1=O [Temodar],,IC50 (glioblastoma cells): 421 to 1020 µM; IC50 (Neuroblastoma cells): 602 µM
significant inhibitory effects,W-A-L-G-V-L-I-Y-E-M-A-A-G-Y (WALGVLIYEMAAGY; MISC_FEATURE - Peptide_SEQ ID NO:69) [Peptide 62],,
,G-F-A-K-R-V-K-G-R-T-W-T-L (GFAKRVKGRTWTL; MISC_FEATURE - Peptide_SEQ ID NO:59) [Peptide 52],,inhibition of AKT1 catalytic activity (AKT1): not able to inhibit AKT1
,AKRVKGRDWTLCGTPEY [ZaTa^T8D],a significant increase in the number of dead cells was not seen,
